Measured values from patent US20260345605A1, “THERAPEUTIC AGENTS FOR HEART FAILURE” (Ottawa Hospital Research Institute, priority 2023, published 2026).

Legend:
[1] = system: iPS cell-derived cardiomyocytes (iCell Cardiomyocytes); test: Secondary screening: morphometric analysis of iCell Cardiomyocytes; type: cell-based, human; details: for Mean Cardiomyocyte Length: iCell Cardiomyocyte, UT 213.01323; for length in iCell cardiomyocyte compared to hCT1: iCell cardiomyocytes, 96 well, four concentrations
Excerpt: (§1) A library of 800 small molecule compounds that can stimulate favorable cardiac adaptation in primary neonatal rat ventricular myocytes (NRVM) was screened. To identify the beneficial modifiers of hypertrophy, the Cellomics Arrayscan High Throughput Screening platform was employed to quantify morphometric features such as, for example, length, width, and length to width ratio from images acquired using a 10× lens for DAPI-labeled nuclei and CY3 labeled α actinin stained cardiomyocytes in a 96 well format. The lead compound was also screened in iPSC derived cardiomyocytes as a part of secondary screening as it offers a physiologically relevant human cell-based model.
(§2) A secondary screening was performed with 10 drugs identified from primary screening for their ability to induce physiological remodeling using morphometric analysis and measuring the levels of B-type natriuretic peptide (BNP), as a surrogate indicator of the hypertrophic response using ELISA. The compounds were selected based on the highly enriched targets identified in the drug set enrichment analysis with a high Z score. Cryopreserved iPS cell-derived cardiomyocytes (“iCell Cardiomyocytes”) obtained from Cellular Dynamics International (CDI, Madison, WI) were used as a cell model to perform the screening.
The cells were plated at a density of 2.5×10^4 cells onto 25 mm diameter fibronectin coated glass coverslips in plating media for 48 hours. The media was replaced with Supplemented William's E (SWE) medium (SWE) media supplemented with cocktail containing penicillin-streptomycin, ITS+(insulin, transferrin, selenium complex, BSA, and linoleic acid), GlutaMAX™, and HEPES (Primary Hepatocyte Maintenance Supplements-GIBCO) for 48 hours. The cells were treated with controls (CT1-40 ng/mL, PE-100 uM) and drugs (AZD1152-HQPA, LY283519) at varying concentrations (2.5, 1, 0.5, and 0.25 uM) for 24 hours.
Post treatments, the cells were washed, fixed and treated with primary antibody, secondary antibody similar to the protocol of Example 3. The effect on the morphometric parameters was assessed using Cellomics Arrayscan Vti HCS reader. The Image acquisition was performed using the Zeiss AxioVision SE64 Imaging software and analyzed using the ImageJ2 software.
iCell cardiomyocytes were seeded at a density of 10,000 cells per well in a 96 well plate format. The cells were maintained as in Example 3 and were treated with controls (hCT1, PE) and drugs (AZD1152-HQPA, LY283519) at four different concentrations for 24 hours. The cells were then fixed and stained with a Actinin for cardiomyocytes followed by nuclear staining with DAPI. The plates were analyzed in Cellomics Arrayscan Vti HCS reader to assess morphometric changes following treatment.

[2] = system: NT Pro-BNP (iCell Cardiomyocyte); test: NT Pro-BNP ELISA in iCell Cardiomyocyte supernatants; type: cell-based, human; details: 24 hour; for Mean NT Pro-BNP levels: iCell Cardiomyocyte, UT 2407.521
Protocol: as §2
Pro-NT BNP levels in the culture media were measured following the 24 hour treatment using the Human NT Pro-BNP DuoSet ELISA kit (R&D Systems, Minnesota USA) as per the manufacturer's instruction. […] The plates were read on BMG BioTek Molecular Devices SpectraMax Microplate Reader at 450 nm to obtain the optical density followed by reading at 540 nm for wavelength correction.
Protein levels were identified by plotting a 4 parametric logistic regression curve using the standards provided with the kit.

aurora kinase B = test: pAurkB S727 immunofluorescence and remodeling in NRVM; type: cell-based, neonatal rat
Protocol: Immunofluorescence was performed to validate and assess the effect of aurora B kinase inhibitor on cardiomyocyte remodeling. NRVMs were plated at a density of 2.5×10^4 cells onto 25 mm diameter collagen coated coverslip. Primary cardiomyocytes were incubated with control serum-free medium (Ctrl, SF medium), hCT1 (0.5 nM), PE (100 μM), AZD1152-HQPA (1.5 μM) and assessed for aurora kinase B activation using pAurkB s727 antibody staining. The cells were treated with a combination of PE and AZD1152 HQPA where the cells were stimulated with the drug for 4 hours following the PE treatment for 24 hours.
Post treatment, the cells were washed, fixed, and were subjected to sequential staining of primary antibodies a Actinin and phospho-AurkB (S727). The images were acquired using the Zeiss AxioVision SE64 Imaging software and analyzed using the ImageJ2 software. Immunofluorescence was used to detect α-actinin, pAurkb S727, and nuclei were stained with DAPI.

[3] = system: phospho-Histone 3 (Ser10); test: phospho-Histone 3 (pH3 Ser10) staining in NRVM; type: cell-based, neonatal rat
Protocol: A one-way ANOVA test performed to assess statistical significance across treatment groups.
The effect of AZD1152-HQPA on cardiac remodeling was further validated using the phospho-Histone 3 (pH3 Ser10) staining which is the downstream target of aurora kinase B. The NRVMs were plated at a density of 2.5×10^4 cells onto 25 mm diameter collagen coated coverslip. The cells were treated with controls (hCT1, PE), AZD1152-HQPA followed by a combination of PE and AZD1152-HQPA.
Post treatment, the cells were washed, fixed, and were subjected to sequential staining of primary antibodies a Actinin and phospho-Histone 3 (Ser10). The images were acquired using the Zeiss AxioVision SE64 Imaging software and analyzed using the ImageJ software. […] The data are represented as Mean±Standard deviation.

cardiomyocytes = test: Overall observation on remodeling of treated cardiomyocytes; type: cell-based
Aurora B = details: role: inhibitor; cited from earlier work
[4] = cited from earlier work
[5] = system: streptozotocin (STZ)-induced cardiac dysfunction; details: animal model of diabetic cardiomyopathy; cited from earlier work
CDK4/6 = details: role: inhibitor; cited from earlier work
[6] = system: DOX-induced cardiomyocyte apoptosis and ventricular dysfunction; details: cited from earlier work
CDK2 = details: role: inhibitor; cited from earlier work
[7] = system: primary neonatal rat ventricular myocytes (NRVM); test: Primary screen of 800 compounds for cardiomyocyte length (Cellomics Arrayscan morphometry, NRVM); type: cell-based, Sprague Dawley rat; details: compared to PE-treated cardiomyocyte and a control; 24 hour treatment
Excerpt: as §1
Neonatal rat ventricular myocytes (NRVM) were isolated from 2-day-old Sprague Dawley rat pups. The NRVM were cultured in plating media (Dulbecco Modified Eagle Media, 10% Fetal Bovine Serum, 100 U/mL penicillin, and […] streptomycin) at a density of 10,000 cells per well in a 96 well plate format. One day after isolation, myocytes were switched to serum-free maintenance media for 24 hours. […]
An algorithm was developed in Cellomics Arrayscan Vti HCS reader to measure the morphological characteristics such as cardiomyocyte length, width, length-width ratio, cell area, and the intensity of α-actinin. […]

[8] = system: neonatal rat ventricular cardiomyocytes; test: Calcium transients (Fura2-AM) in neonatal rat ventricular cardiomyocytes; type: cell-based
Protocol: Method: Freshly isolated wildtype neonatal rat ventricular cardiomyocytes were plated onto laminin coated glass coverslides, rinsed once and then loaded with 1 μM Fura2-AM (Life Technologies) for 15 min at 37 °C. After washing the cells thrice with Tyrode solution, measuring chambers were transferred onto a Nikon Eclipse TE2000-U microscope equipped with a fluorescence detection system (IonOptix). Ca^2+ transient values were recorded according to the corresponding FRET experiments. F340/F380 values in Fura2-AM experiments were calculated from the ratios of 510 nm emission light measured at 340 and 380 nm excitations.

cardiomyocytes (NRVMs) = test: Oxygen consumption rate of cardiomyocytes (Seahorse Mito Stress Test); type: cell-based, neonatal rat; details: 24 h treatment; vs untreated control; FIG. 12
Protocol: OCR detection of cardiomyocytes was conducted with the Seahorse Xfe 24 analyzer (Agilent, Santa Clara, USA). Cardiomyocytes were seeded at a density of 8×10^4/well in a special Seahorse 24-well plate (102342-100, Seahorse). After treating with hCT1, PE and drug for 24 h, the medium was replaced with XF medium containing 10 mM D-(+)-glucose (G7021, Sigma-Aldrich), and 1 mM sodium pyruvate (11360070, Thermo Fisher). The plates were placed in a CO2-free 37 °C incubator for an hour before the measurement. A Seahorse XF Cell Mito Stress Test Kit (103015-100, Seahorse) was used for detection. The basal respiration of the NRVMs was detected, and ATP-linked OCR was analyzed after treatment with 1 μM oligomycin (ATP synthase inhibitor). Then, the uncoupling agent carbonyl [COMPOUND LEFT OUT] 4-(trifluoromethoxy) phenylhydrazone (FCCP) 0.5 μM was injected to detect maximal respiration. Finally, rotenone and antimycin A (AR) were used to abolish mitochondrial respiration by inhibiting complexes I and III, respectively.

CCN(CCO)CCCOc1ccc2c(Nc3cc(CC(=O)Nc4cccc(F)c4)[nH]n3)ncnc2c1 [AZD1152-HQPA, AZD1152-hydroxyquinazoline pyrazol anilide]
Mean Cardiomyocyte Length ([1]; drug 0.25 μm, 24 hours): 236 µm
Mean Cardiomyocyte Length ([1]; drug 0.5 μm, 24 hours): 232 µm
Mean Cardiomyocyte Length ([1]; drug 1 μm, 24 hours): 218 µm
Mean Cardiomyocyte Length ([1]; drug 2.5 μm, 24 hours): 223 µm
Eccentric cardiac remodeling ([1]; iCell cardiomyocyte, 1 uM, FIG. 4A): Eccentric cardiac remodeling was observed
cardiomyocyte length compared with CT1 treated cells ([1]; iCell cardiomyocytes on coverslips, 24 hours): comparable cardiomyocyte length
length in iCell cardiomyocyte compared to hCT1 ([1]; 24 hours): increased length in iCell cardiomyocyte comparable to length induced by hCT1
Mean NT Pro-BNP levels ([2]; drug 0.25 μm): 2100.945 pg/mL
Mean NT Pro-BNP levels ([2]; drug 0.5 μm): 1588.366 pg/mL
Mean NT Pro-BNP levels ([2]; drug 1 μm): 2023.151 pg/mL
Mean NT Pro-BNP levels ([2]; drug 2.5 μm): 2085.823 pg/mL
Pro-NT BNP levels compared to UT and CT1 treated cells ([2]; iCell cardiomyocytes): comparable and/or reduced BNP levels
aurora kinase b activation (aurora kinase B; AZD1152-HQPA 1.5 μM): inhibited aurora kinase b activation
pathological effect of PE (aurora kinase B; drug for 4 hours following PE treatment for 24 hours): able to reverse the pathological effect of PE
pH3 activity ([3]; AZD1152-HQPA alone): reduced pH3 activity
pH3 activity ([3]; AZD1152-HQPA in combination with PE treatment): reduced pH3 activity
cardiomyocyte remodeling (cardiomyocytes): adaptive and compensatory remodeling that resembles a physiologic growth response, adding sarcomeres in series
Aurora B inhibition (Aurora B): strong and selective inhibitor of Aurora B
conversion to the active AZD1152-HQPA in plasma [4]: converted rapidly

CC(=O)c1c(C)c2cnc(Nc3ccc(N4CCNCC4)cn3)nc2n(C2CCCC2)c1=O [Palbociclib]
effect on streptozotocin (STZ)-induced cardiac dysfunction [5]: inhibiting streptozotocin (STZ)-induced cardiac dysfunction by attenuating maladaptive cardiac remodeling
CDK4/6 inhibition (CDK4/6): CDK4/6 inhibitor

CC[C@H](CO)Nc1nc(NCc2ccccc2)c2ncn(C(C)C)c2n1 [Roscovitine]
cardioprotective effect against DOX ([6]; DOX-associated contractile dysfunction and ventricular remodeling): attenuating myocytes from DOX-associated contractile dysfunction and ventricular remodeling
CDK2 inhibition (CDK2): CDK2 inhibitor

COc1cccc2c1C(=O)c1c(O)c3c(c(O)c1C2=O)C[C@@](O)(C(=O)CO)C[C@@H]3O[C@H]1C[C@H](N)[C@H](O)[C@H](C)O1 [DOX, doxorubicin]
DOX-induced effect on heart ([6]; CDK2 activation as mechanism): cardiomyocyte apoptosis and ventricular dysfunction

B1: CT1: Cardiotrophin 1 at 40 ng/mL was used as a positive control (protein, UniProt Q16619 1-201, looked up)
Cardiotrophin-1: MSRREGSLEDPQTDSSVSLLPHLEAKIRQTHSLAHLLTKYAEQLLQEYVQLQGDPFGLPSFSPPRLPVAGLSAPAPSHAGLPVHERLRLDAAALAALPPLLDAVCRRQAELNPRAPRLLRRLEDAARQARALGAAVEALLAALGAANRGPRAEPPAATASAASATGVFPAKVLGLRVCGLYREWLSRTEGDLGQLLPGGSA
length of cardiomyocyte [7]: increase in the length of cardiomyocyte
Mean Cardiomyocyte Length ([1]; positive control CT1, 40 ng/mL, 24 hours): 229 µm
length in iCell cardiomyocyte compared to hCT1 ([1]; 24 hours): positive modulator of cardiomyocyte length
Mean NT Pro-BNP levels ([2]; control CT1): 2240.774 pg/mL
area under the curve (AUC) of calcium transient ([8]; compared to control, FIG. 11): increased AUC compared to control
calcium transient levels ([8]; compared to control, FIG. 11): increase in calcium transient levels compared to control
contractility / contractile function ([8]; inferred from peak calcium transient, AUC and time to peak): improved contractility by modest increase in peak calcium transient levels and AUC with modest decrease in time to attain those peak levels
oxygen consumption rate (OCR) (cardiomyocytes (NRVMs)): increase the rate of oxygen consumption
